# From ChEMBL document CHEMBL1201862, “PubChem BioAssay data set” (2004)
#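 Results reflect a 48-hour exposure of cells in 96-well plates to compound at five concentrations. Abbreviation: GI50, concentration required for 50% inhibition of growth.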 Calls of active or inactive are those of the source. Rule as the data show it: active = GI50 up to about 1.1 µM and inactive = higher.
# Experiments:
# Assay in all cases: NCI-60 cell line screen, 48 h
# SNB-19 = tested on: SNB-19
# OVCAR-8 = tested on: OVCAR-8
# HL-60 = tested on: HL-60
# MOLT-4 = tested on: MOLT-4
# OVCAR-3 = tested on: OVCAR-3
# CCRF-CEM = tested on: CCRF-CEM
# HCT-116 = tested on: HCT-116
# SN12C = tested on: SN12C
# KM-20L2 = tested on: KM-20L2
# COLO 205 = tested on: COLO 205
# TK-10 = tested on: TK-10
# SR = tested on: SR
# NCI-H522 = tested on: NCI-H522
# NCI-H23 = tested on: NCI-H23
# SNB-75 = tested on: SNB-75
# HOP-92 = tested on: HOP-92
# RXF 393 = tested on: RXF 393
# BT-549 = tested on: BT-549
# T47D = tested on: T47D
# MCF7 = tested on: MCF7
SMILES,GI50 (SNB-19),GI50 (OVCAR-8),GI50 (HL-60),GI50 (MOLT-4),GI50 (OVCAR-3),GI50 (CCRF-CEM),GI50 (HCT-116),GI50 (SN12C),GI50 (KM-20L2),GI50 (COLO 205),GI50 (TK-10),GI50 (SR),GI50 (NCI-H522),GI50 (NCI-H23),GI50 (SNB-75),GI50 (HOP-92),GI50 (RXF 393),GI50 (BT-549),GI50 (T47D),GI50 (MCF7)
CC#COP(=O)(OCC)OCC,> 100 µM (inactive),> 100 µM (inactive),17.7 µM (inactive),> 100 µM (inactive),> 100 µM (inactive),75 µM (inactive),> 100 µM (inactive),> 100 µM (inactive),> 100 µM (inactive),> 100 µM (inactive),> 100 µM (inactive),64.6 µM (inactive),> 100 µM (inactive),> 100 µM (inactive),,,,,,
CC(C)(C)C1=CC(=C2C(=O)C(=O)c3ccccc3C2=O)C=C(C(C)(C)C)C1=O,> 100 µM (inactive),51.3 µM (inactive),29.4 µM (inactive),,33 µM (inactive),36.5 µM (inactive),19.2 µM (inactive),72.9 µM (inactive),> 100 µM (inactive),42.1 µM (inactive),84.9 µM (inactive),,18.7 µM (inactive),32.7 µM (inactive),> 100 µM (inactive),28.8 µM (inactive),,,,
C#Cc1ccccc1N1C(=O)C=CC1=O,> 100 µM (inactive),> 100 µM (inactive),> 100 µM (inactive),> 100 µM (inactive),> 100 µM (inactive),> 100 µM (inactive),> 100 µM (inactive),> 100 µM (inactive),> 100 µM (inactive),> 100 µM (inactive),> 100 µM (inactive),> 100 µM (inactive),> 100 µM (inactive),> 100 µM (inactive),> 100 µM (inactive),,,,,
Cc1ccc(NC(=O)C(=O)C(C2C(C)CC(=O)C2CC(=O)O)[N+](=O)[O-])cc1 (stereo not given),> 100 µM (inactive),> 100 µM (inactive),> 100 µM (inactive),> 100 µM (inactive),> 100 µM (inactive),> 100 µM (inactive),> 100 µM (inactive),> 100 µM (inactive),> 100 µM (inactive),> 100 µM (inactive),> 100 µM (inactive),> 100 µM (inactive),,> 100 µM (inactive),> 100 µM (inactive),> 100 µM (inactive),> 100 µM (inactive),,,
Cc1cccc(C)c1N1C(=O)C(=O)C(c2nc3ccccc3s2)/C(=N\N)C1=O (stereo not given),> 100 µM (inactive),> 100 µM (inactive),36.3 µM (inactive),30.3 µM (inactive),> 100 µM (inactive),,> 100 µM (inactive),78.7 µM (inactive),> 100 µM (inactive),> 100 µM (inactive),> 100 µM (inactive),,39.4 µM (inactive),> 100 µM (inactive),> 100 µM (inactive),> 100 µM (inactive),,,,
Cc1ccc(C2=NO[C@@H]3C(=O)N(c4ccc(Cc5ccc(N6C(=O)[C@H]7C(c8ccc(C)cc8)=NO[C@H]7C6=O)cc5)cc4)C(=O)[C@H]23)cc1,,> 100 µM (inactive),> 100 µM (inactive),> 10 µM (inactive),> 100 µM (inactive),> 100 µM (inactive),,> 100 µM (inactive),> 100 µM (inactive),> 100 µM (inactive),> 100 µM (inactive),,,> 100 µM (inactive),79.4 µM (inactive),> 100 µM (inactive),> 100 µM (inactive),,,
COc1ccc(C(=O)O/N=C2\CCCC\C2=C/c2ccccc2)cc1,58.3 µM (inactive),> 100 µM (inactive),> 100 µM (inactive),> 100 µM (inactive),,> 100 µM (inactive),> 100 µM (inactive),> 100 µM (inactive),> 100 µM (inactive),> 100 µM (inactive),68.7 µM (inactive),,,15.4 µM (inactive),28.4 µM (inactive),,,,,
C/C(=N\NC(N)=S)c1ccc(C)cc1C,,> 100 µM (inactive),36 µM (inactive),41.8 µM (inactive),75.7 µM (inactive),> 100 µM (inactive),> 100 µM (inactive),> 100 µM (inactive),> 100 µM (inactive),55.8 µM (inactive),> 100 µM (inactive),< 0.01 µM (active),,> 100 µM (inactive),47.5 µM (inactive),> 100 µM (inactive),8.2 µM (inactive),,,
Cc1ccccc1Cn1nc2ccccc2cc1=O,> 100 µM (inactive),> 100 µM (inactive),,,> 100 µM (inactive),> 100 µM (inactive),> 100 µM (inactive),> 100 µM (inactive),> 100 µM (inactive),> 100 µM (inactive),> 100 µM (inactive),,,> 100 µM (inactive),22.1 µM (inactive),> 100 µM (inactive),,,,
CC(C)C(=O)N[C@@H](C)C(=O)N(Cc1ccc2ccccc2c1)N=O,> 100 µM (inactive),> 100 µM (inactive),,39.4 µM (inactive),62.7 µM (inactive),61.4 µM (inactive),68.9 µM (inactive),> 100 µM (inactive),> 100 µM (inactive),> 100 µM (inactive),> 100 µM (inactive),,,,> 100 µM (inactive),,,,,
O=C(Nc1nc2ncn(CCO)c2c(=S)[nH]1)c1ccccc1,> 100 µM (inactive),> 100 µM (inactive),> 100 µM (inactive),,> 100 µM (inactive),> 100 µM (inactive),> 100 µM (inactive),> 100 µM (inactive),> 100 µM (inactive),> 100 µM (inactive),> 100 µM (inactive),> 100 µM (inactive),> 100 µM (inactive),,> 100 µM (inactive),> 100 µM (inactive),> 100 µM (inactive),,,
CC(C)=CC(=O)CC(=O)C(=O)NCCNC(=O)C(=O)CC(=O)C=C(C)C,> 50 µM (inactive),> 50 µM (inactive),,,> 50 µM (inactive),,> 50 µM (inactive),> 50 µM (inactive),> 50 µM (inactive),> 50 µM (inactive),> 50 µM (inactive),,,> 50 µM (inactive),> 50 µM (inactive),> 50 µM (inactive),> 50 µM (inactive),,,
COC(=O)c1nn(-c2ccccc2)c(=O)cc1N=[N+]=[N-],> 100 µM (inactive),> 100 µM (inactive),> 100 µM (inactive),> 100 µM (inactive),> 100 µM (inactive),> 100 µM (inactive),> 100 µM (inactive),> 100 µM (inactive),> 100 µM (inactive),99.5 µM (inactive),> 100 µM (inactive),> 100 µM (inactive),> 100 µM (inactive),> 100 µM (inactive),,,> 100 µM (inactive),,,
CCOC(=O)C(OCC1CC=CCC1)Sc1ccccc1 (stereo not given),> 100 µM (inactive),> 100 µM (inactive),> 100 µM (inactive),,> 100 µM (inactive),> 100 µM (inactive),> 100 µM (inactive),> 100 µM (inactive),> 100 µM (inactive),> 100 µM (inactive),> 100 µM (inactive),1.77 µM (inactive),> 100 µM (inactive),> 100 µM (inactive),> 100 µM (inactive),> 100 µM (inactive),,,,
CCCC(=O)Nc1ccc(O)c2c1C1CCCCCC21 (stereo not given),> 100 µM (inactive),> 100 µM (inactive),> 100 µM (inactive),56.9 µM (inactive),,> 100 µM (inactive),85.3 µM (inactive),> 100 µM (inactive),> 100 µM (inactive),> 100 µM (inactive),> 100 µM (inactive),82.2 µM (inactive),75.5 µM (inactive),> 100 µM (inactive),72.3 µM (inactive),,39.1 µM (inactive),,,
COC1[C@H](NC(=O)OC(C)(C)C)C(=O)N1Cc1ccccc1 (stereo not given in full),> 100 µM (inactive),> 100 µM (inactive),> 100 µM (inactive),> 100 µM (inactive),> 100 µM (inactive),> 100 µM (inactive),> 100 µM (inactive),> 100 µM (inactive),> 100 µM (inactive),> 100 µM (inactive),> 100 µM (inactive),,,> 100 µM (inactive),> 100 µM (inactive),74.6 µM (inactive),> 100 µM (inactive),,,
COC(=O)CCC(=O)NC1=C(Nc2ccc(OC)cc2)C(=O)c2ccccc2C1=O,17.8 µM (inactive),14.1 µM (inactive),10.8 µM (inactive),15.7 µM (inactive),3.18 µM (inactive),26.1 µM (inactive),6.58 µM (inactive),13.1 µM (inactive),,14.5 µM (inactive),32.7 µM (inactive),12.9 µM (inactive),10.8 µM (inactive),6.34 µM (inactive),2.52 µM (inactive),8.69 µM (inactive),13.4 µM (inactive),15.4 µM (inactive),14.6 µM (inactive),4.11 µM (inactive)
CC(C)NC(C)C(C)c1ccccc1 (stereo not given),> 100 µM (inactive),> 100 µM (inactive),,> 100 µM (inactive),> 100 µM (inactive),> 100 µM (inactive),> 100 µM (inactive),> 100 µM (inactive),> 100 µM (inactive),> 100 µM (inactive),> 100 µM (inactive),,> 100 µM (inactive),> 100 µM (inactive),> 100 µM (inactive),,> 100 µM (inactive),,,
COC(=O)c1c(O)ccc2c1c1c(n2Cc2ccc(OC)cc2)C(=O)c2ccccc2C1=O,22.5 µM (inactive),2.4 µM (inactive),0.308 µM (active),0.139 µM (active),16.1 µM (inactive),0.128 µM (active),6.3 µM (inactive),2.78 µM (inactive),,1.84 µM (inactive),45.7 µM (inactive),0.251 µM (active),4.1 µM (inactive),11 µM (inactive),15.1 µM (inactive),10.5 µM (inactive),10.7 µM (inactive),0.0131 µM (active),6.78 µM (inactive),4.49 µM (inactive)
